Measurements as given in PubChem BioAssay (NCI).
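Interpolation was linear, between the two tested concentrations surrounding the appropriate level; five concentrations were tested over 48 hours in 96-well plates. TGI: total growth inhibition.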

Key:
Assay in all cases: DTP human tumour cell line panel, 48 h
HT29 colon = system: HT29 colon
A498 renal = system: A498 renal
PC-3 prostate = system: PC-3 prostate
DU-145 prostate = system: DU-145 prostate
BT-549 breast = system: BT-549 breast
SW-620 colon = system: SW-620 colon
RXF 393 renal = system: RXF 393 renal
MDA-N = system: MDA-N
CAKI-1 renal = system: CAKI-1 renal
MCF7 breast = system: MCF7 breast
UACC-257 melanoma = system: UACC-257 melanoma
HCT-15 colon = system: HCT-15 colon
SNB-75 CNS = system: SNB-75 CNS
SF-268 CNS = system: SF-268 CNS
EKVX NSCLC = system: EKVX NSCLC
OVCAR-3 ovarian = system: OVCAR-3 ovarian
SK-OV-3 ovarian = system: SK-OV-3 ovarian
MOLT-4 leukemia = system: MOLT-4 leukemia

Row | Structure (SMILES) | TGI (HT29 colon) | TGI (A498 renal) | TGI (PC-3 prostate) | TGI (DU-145 prostate) | TGI (BT-549 breast) | TGI (SW-620 colon) | TGI (RXF 393 renal) | TGI (MDA-N) | TGI (CAKI-1 renal) | TGI (MCF7 breast) | TGI (UACC-257 melanoma) | TGI (HCT-15 colon) | TGI (SNB-75 CNS) | TGI (SF-268 CNS) | TGI (EKVX NSCLC) | TGI (OVCAR-3 ovarian) | TGI (SK-OV-3 ovarian) | TGI (MOLT-4 leukemia)
1 | C=C1C(=O)OC2C3OC(C)(CCC(O)C3COC(C)=O)CC(OC(=O)/C(=C/C)COC(C)=O)C12 (configuration not stated) | 0.521 µM | 3.05 µM | 4.49 µM | 2.04 µM | 0.722 µM | 0.261 µM | 0.515 µM | 0.645 µM | 0.39 µM | 0.533 µM | 1.96 µM | 0.141 µM | 18.1 µM | 7.84 µM | 1.61 µM | 0.983 µM | 19.6 µM | 0.389 µM
2 | CC[C@@]1(O)C(=O)OCc2c1cc1n(c2=O)Cc2c-1nc1ccccc1c2/C=N\NC(=O)C(N)Cc1c[nH]c2ccccc12 (some centres not stated) | > 100 µM | 2.76 µM | > 100 µM | > 100 µM | > 100 µM | > 100 µM | 1.21 µM | > 100 µM | 2.52 µM | > 55.7 µM | > 38 µM | > 100 µM | 1.83 µM | 19.6 µM | > 100 µM | > 54.9 µM | > 84 µM | 1.18 µM
3 | O=C1C(c2c(O)[nH]c3ccc(S(=O)(=O)NCCO)cc23)=Nc2ccccc21 | > 100 µM | 9.07 µM | 54.3 µM | 46.8 µM | 18.7 µM | > 100 µM | 18.9 µM | > 100 µM | > 100 µM | 6.53 µM | > 100 µM | > 100 µM | 7.43 µM | 51 µM | > 100 µM | 18.3 µM | 20.3 µM | 36.6 µM
4 | CN1CCN([C@H]2C[C@H]3[C@@H]4CC=C5C[C@@H](O)CC[C@]5(C)[C@H]4CC[C@]3(C)[C@H]2O)CC1 | 28.6 µM | > 100 µM | > 86.6 µM | > 100 µM | > 100 µM | 49.7 µM | 51.9 µM | 34.6 µM | > 100 µM | > 63.2 µM | > 69.3 µM | > 59.2 µM | 97.4 µM | > 59.4 µM | > 100 µM | > 57.8 µM | > 100 µM | > 82.5 µM
5 | CC/C(N)=N\NC(=O)OC(C)(C)C | > 100 µM | > 100 µM | > 100 µM | > 100 µM | > 100 µM | > 100 µM | > 100 µM | > 100 µM | > 100 µM | > 100 µM | > 100 µM | > 100 µM | > 100 µM | > 100 µM | > 100 µM | > 100 µM | > 100 µM | > 100 µM
6 | C=C1CC2[C@H](C)C(=O)CCC2(C)C2=C1C1CCC(C(C)CCC(=C)C(C)C(=O)O)C1(C)CC2=O (some centres not stated) | > 100 µM | > 100 µM | > 100 µM | > 100 µM | > 100 µM | > 100 µM | 86.4 µM | > 100 µM | > 100 µM | > 100 µM | 96 µM | > 100 µM | > 100 µM | > 100 µM | > 100 µM | > 100 µM | > 100 µM | 63.1 µM
7 | CCOC(=O)C(C/C=C/CO)N(C)C(=O)OC(C)(C)C (configuration not stated) | > 100 µM | > 100 µM | > 100 µM | > 100 µM | > 100 µM | > 100 µM | > 100 µM | > 100 µM | > 100 µM | > 100 µM | > 100 µM | > 100 µM | > 100 µM | > 100 µM | > 100 µM | > 100 µM | > 100 µM | > 100 µM
8 | O=C(Nc1ccc2ccccc2c1)c1cc2cc(CCl)ccc2oc1=O | > 100 µM | > 100 µM | > 100 µM | > 100 µM | > 100 µM | > 100 µM | 54.1 µM | > 100 µM | > 100 µM | > 100 µM | > 100 µM | > 100 µM | 38.5 µM | 73.5 µM | > 100 µM | > 100 µM | > 100 µM | > 100 µM
9 | O=c1cc(N2CCCC2)[nH]c(=O)n1-c1ccc(Cl)cc1 | > 100 µM | > 100 µM | > 100 µM | > 100 µM | > 100 µM | > 100 µM | > 100 µM | > 100 µM | > 100 µM | > 100 µM | > 100 µM | > 100 µM | > 100 µM | > 100 µM | > 100 µM | > 100 µM | > 100 µM | > 100 µM
